Like-named read-outs stand apart in the source and are kept apart here.
Assays:
CYP2A6 = biological target: T1, CYP2A6 (Homo sapiens, UniProt P11509); conditions: both, 20 min
T1 sequence (P11509 1-494): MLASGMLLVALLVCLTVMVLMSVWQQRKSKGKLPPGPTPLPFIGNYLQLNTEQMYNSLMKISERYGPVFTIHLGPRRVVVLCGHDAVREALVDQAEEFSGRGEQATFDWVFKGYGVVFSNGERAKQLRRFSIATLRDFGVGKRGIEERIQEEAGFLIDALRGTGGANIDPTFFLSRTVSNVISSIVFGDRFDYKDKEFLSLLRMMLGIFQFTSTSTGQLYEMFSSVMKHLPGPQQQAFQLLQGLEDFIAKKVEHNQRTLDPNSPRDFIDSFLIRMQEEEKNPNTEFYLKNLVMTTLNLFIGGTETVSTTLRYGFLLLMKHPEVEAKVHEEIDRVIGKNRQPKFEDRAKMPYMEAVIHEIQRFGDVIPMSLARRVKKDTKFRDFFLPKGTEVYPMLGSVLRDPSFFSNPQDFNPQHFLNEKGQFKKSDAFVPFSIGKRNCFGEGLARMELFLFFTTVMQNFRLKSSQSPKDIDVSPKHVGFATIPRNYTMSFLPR

CYP2D6 = CYP2D6 (Homo sapiens, UniProt P10635); conditions: both, 15 min
CYP1A2 = biological target: T2, CYP1A2 (Homo sapiens, UniProt P05177); assay: in vitro; conditions: both, microsomes
T2 sequence (P05177 1-516): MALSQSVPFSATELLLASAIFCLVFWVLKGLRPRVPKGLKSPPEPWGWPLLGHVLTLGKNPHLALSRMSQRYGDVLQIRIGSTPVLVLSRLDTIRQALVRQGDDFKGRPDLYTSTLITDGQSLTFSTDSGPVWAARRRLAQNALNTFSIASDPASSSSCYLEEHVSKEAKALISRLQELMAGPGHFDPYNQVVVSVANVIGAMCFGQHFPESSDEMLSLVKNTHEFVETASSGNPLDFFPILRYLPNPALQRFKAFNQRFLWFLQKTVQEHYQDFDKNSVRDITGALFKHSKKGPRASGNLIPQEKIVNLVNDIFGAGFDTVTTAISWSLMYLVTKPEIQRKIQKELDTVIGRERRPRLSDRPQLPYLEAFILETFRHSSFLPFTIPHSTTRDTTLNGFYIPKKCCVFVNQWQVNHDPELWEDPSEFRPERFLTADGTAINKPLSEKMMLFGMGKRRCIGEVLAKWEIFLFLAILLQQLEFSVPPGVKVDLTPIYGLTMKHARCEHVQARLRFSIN

CYP2D6, sequence (P10635 whole entry): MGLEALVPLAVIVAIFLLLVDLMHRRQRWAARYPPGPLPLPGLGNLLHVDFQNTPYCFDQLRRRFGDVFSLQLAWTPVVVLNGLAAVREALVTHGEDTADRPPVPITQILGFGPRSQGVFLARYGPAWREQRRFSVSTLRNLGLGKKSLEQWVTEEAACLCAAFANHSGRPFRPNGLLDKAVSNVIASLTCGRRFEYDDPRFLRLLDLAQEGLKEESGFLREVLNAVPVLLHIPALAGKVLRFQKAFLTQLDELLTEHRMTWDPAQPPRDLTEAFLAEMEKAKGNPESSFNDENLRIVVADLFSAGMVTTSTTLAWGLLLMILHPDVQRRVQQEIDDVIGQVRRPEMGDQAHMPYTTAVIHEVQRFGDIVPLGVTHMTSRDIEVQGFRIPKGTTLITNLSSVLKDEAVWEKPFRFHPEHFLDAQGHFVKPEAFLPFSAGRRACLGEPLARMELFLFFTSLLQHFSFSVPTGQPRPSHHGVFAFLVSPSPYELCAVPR

Question: O=C(O)C(Oc1cccc(C(F)(F)F)c1)c1ccc(Cl)cc1 (single isomer, unassigned; (-)) [(−) halofenic acid, (−) 4-chlorophenyl-(3-trifluoromethylphenoxy)-acetic acid] was tested. Which “Coumarin 7-HC Production” value (CYP2A6; 0.33 μM) did it give?
Answer: The value was 33.3 ± 0.7 pmol/mg protein/min.

Question: What about the “Coumarin 7-HC Production” value (CYP2A6; 1 μM) of the same compound?
Answer: Its value is 32.6 ± 0.7 pmol/mg protein/min.

Question: What about the “Coumarin 7-HC Production” value (CYP2A6; 3.3 μM) of the same compound?
Answer: Its value is 32.1 ± 0.7 pmol/mg protein/min.

Question: What about the “Coumarin 7-HC Production” value (CYP2A6; 10 μM) of the same compound?
Answer: The value was 33.1 ± 0.7 pmol/mg protein/min.

Question: And the “Coumarin 7-HC Production” value (CYP2A6; 33.3 μM)?
Answer: Its value is 32.3 ± 0.7 pmol/mg protein/min.

Question: What about the “Dextromethorphan DEX Production” value (CYP2D6; 0.33 μM) of the same compound?
Answer: Its value is 107 ± 4 pmol/mg protein/min.

Question: What about the “Dextromethorphan DEX Production” value (CYP2D6; 1 μM) of the same compound?
Answer: Its value is 110 ± 2 pmol/mg protein/min.

Question: And the “Dextromethorphan DEX Production” value (CYP2D6; 3.3 µM)?
Answer: The value was 104 ± 3 pmol/mg protein/min.

Question: And the “Dextromethorphan DEX Production” value (CYP2D6; 10 µM)?
Answer: Its value is 107 ± 1 pmol/mg protein/min.

Question: And the “Dextromethorphan DEX Production” value (CYP2D6; 33.3 µM)?
Answer: Its value is 106 ± 4 pmol/mg protein/min.

Question: What about the inhibition at 30 min, 0.33 μM (CYP1A2) of the same compound?
Answer: The inhibition at 30 min, 0.33 μM was 1%.

Question: What about the inhibition at 30 min, 1 μM (CYP1A2) of the same compound?
Answer: The inhibition at 30 min, 1 μM was 0%.

Question: What about the inhibition at 30 min, 3.3 μM (CYP1A2) of the same compound?
Answer: Its inhibition at 30 min, 3.3 μM is -1%.

Question: What about the inhibition at 30 min, 10 μM (CYP1A2) of the same compound?
Answer: The inhibition at 30 min, 10 μM was -1%.

Question: And the inhibition at 30 min, 33.3 μM (CYP1A2)?
Answer: Its inhibition at 30 min, 33.3 μM is -1%.

Source: patent US20040039053A1, “Use of(-) (3-halomethylphenoxy) (4-halophenyl) acetic acid derivatives for treatment of insulin resistance, type 2 diabetes, hyperlipidemia and hyperuricemia” (priority 2000, published 2004)
